Read-outs that look alike come from different tables or passages of the source.
Columns and labels:
Test in all cases: SelectScreen Kinase Profiling, single point inhibition and IC50 for off-target kinases
Type in all cases: biochemical
off-target kinases [1] = target: T1, off-target kinases (Homo sapiens, UniProt P25098); conditions: ADRBK1 (GRK2), ZLYTE, ATP Km app
T1 sequence (P25098 1-689): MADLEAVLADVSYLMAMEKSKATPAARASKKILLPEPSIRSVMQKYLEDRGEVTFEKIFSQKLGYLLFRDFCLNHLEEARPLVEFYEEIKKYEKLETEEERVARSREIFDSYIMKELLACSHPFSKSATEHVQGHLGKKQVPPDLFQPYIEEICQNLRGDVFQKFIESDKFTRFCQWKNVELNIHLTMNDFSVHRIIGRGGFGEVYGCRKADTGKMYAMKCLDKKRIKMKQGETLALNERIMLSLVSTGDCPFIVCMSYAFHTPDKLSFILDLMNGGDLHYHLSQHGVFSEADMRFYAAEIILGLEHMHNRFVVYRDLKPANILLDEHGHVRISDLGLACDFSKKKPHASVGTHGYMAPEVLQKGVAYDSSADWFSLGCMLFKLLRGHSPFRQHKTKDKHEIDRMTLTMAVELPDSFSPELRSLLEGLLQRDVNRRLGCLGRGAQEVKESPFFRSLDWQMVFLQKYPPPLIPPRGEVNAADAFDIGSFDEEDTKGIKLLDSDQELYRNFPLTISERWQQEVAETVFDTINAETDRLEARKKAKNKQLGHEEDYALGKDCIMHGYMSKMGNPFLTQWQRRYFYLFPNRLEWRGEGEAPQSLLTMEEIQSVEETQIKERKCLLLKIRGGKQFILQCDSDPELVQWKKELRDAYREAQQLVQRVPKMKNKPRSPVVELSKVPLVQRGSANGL

off-target kinases [2] = target: off-target kinases (Homo sapiens, UniProt Q86UX6)
Sequence of off-target kinases (Homo sapiens, UniProt Q86UX6) (Q86UX6 whole entry): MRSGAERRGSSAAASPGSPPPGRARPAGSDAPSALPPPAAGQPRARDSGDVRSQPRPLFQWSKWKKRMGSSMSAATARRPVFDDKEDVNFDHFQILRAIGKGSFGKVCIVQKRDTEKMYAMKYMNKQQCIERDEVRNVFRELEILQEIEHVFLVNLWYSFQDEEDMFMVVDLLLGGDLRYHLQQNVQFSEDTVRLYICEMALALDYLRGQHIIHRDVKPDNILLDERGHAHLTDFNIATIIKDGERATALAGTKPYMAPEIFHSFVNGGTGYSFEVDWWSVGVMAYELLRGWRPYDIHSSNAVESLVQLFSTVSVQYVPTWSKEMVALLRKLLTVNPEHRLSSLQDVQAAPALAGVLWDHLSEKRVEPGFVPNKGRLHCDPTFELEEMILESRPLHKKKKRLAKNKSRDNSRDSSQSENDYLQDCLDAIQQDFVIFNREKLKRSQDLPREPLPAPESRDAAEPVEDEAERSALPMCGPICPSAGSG

off-target kinases [3] = target: off-target kinases (Homo sapiens, UniProt Q9BYP7)
Sequence of off-target kinases (Homo sapiens, UniProt Q9BYP7) (Q9BYP7 whole entry): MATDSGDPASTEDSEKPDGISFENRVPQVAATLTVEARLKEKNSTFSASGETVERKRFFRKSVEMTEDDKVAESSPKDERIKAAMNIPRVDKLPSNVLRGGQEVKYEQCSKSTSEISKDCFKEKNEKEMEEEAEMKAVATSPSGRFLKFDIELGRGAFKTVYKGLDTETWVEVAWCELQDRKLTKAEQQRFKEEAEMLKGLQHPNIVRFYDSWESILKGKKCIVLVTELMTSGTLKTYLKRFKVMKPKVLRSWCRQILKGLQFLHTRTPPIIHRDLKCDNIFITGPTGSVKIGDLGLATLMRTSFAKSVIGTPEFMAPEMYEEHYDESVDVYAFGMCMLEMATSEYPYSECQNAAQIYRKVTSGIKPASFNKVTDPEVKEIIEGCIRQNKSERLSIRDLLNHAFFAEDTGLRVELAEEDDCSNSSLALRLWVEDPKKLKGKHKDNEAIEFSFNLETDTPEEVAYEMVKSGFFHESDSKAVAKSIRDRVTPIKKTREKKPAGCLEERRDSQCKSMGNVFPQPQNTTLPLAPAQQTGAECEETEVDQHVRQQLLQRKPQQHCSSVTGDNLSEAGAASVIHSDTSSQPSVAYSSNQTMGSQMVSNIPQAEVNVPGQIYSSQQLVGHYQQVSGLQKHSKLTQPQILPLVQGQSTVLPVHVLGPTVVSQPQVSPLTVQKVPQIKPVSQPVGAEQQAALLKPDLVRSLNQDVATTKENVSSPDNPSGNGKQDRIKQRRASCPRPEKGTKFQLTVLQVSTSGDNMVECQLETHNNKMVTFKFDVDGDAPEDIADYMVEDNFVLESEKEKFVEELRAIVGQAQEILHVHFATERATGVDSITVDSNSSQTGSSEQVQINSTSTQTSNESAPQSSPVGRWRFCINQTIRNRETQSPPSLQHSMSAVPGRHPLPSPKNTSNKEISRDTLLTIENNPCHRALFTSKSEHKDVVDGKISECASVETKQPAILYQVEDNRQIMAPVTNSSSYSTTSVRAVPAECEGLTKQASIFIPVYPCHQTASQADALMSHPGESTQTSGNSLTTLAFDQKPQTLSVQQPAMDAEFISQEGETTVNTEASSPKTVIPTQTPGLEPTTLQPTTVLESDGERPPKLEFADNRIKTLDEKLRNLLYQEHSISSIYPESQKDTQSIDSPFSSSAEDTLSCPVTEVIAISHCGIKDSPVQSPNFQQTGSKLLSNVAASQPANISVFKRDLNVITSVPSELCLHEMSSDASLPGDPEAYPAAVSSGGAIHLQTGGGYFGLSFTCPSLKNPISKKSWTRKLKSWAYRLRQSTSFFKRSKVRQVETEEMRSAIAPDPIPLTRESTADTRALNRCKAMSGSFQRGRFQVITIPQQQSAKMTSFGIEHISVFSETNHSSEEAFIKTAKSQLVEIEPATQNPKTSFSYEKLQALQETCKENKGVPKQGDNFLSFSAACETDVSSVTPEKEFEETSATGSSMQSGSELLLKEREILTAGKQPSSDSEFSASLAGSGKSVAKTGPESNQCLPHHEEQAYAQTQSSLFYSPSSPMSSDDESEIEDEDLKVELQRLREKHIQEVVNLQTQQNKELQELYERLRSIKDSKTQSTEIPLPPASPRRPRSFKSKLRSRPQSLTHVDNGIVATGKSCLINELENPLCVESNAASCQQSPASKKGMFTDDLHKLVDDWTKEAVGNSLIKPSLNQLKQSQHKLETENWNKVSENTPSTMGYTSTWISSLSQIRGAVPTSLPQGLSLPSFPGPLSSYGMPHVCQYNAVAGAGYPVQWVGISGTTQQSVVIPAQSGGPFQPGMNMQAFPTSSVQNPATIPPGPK

off-target kinases [4] = target: off-target kinases (Homo sapiens, UniProt Q00526); conditions: CDK3/cyclin E1, LanthaScreen Binding
Sequence of off-target kinases (Homo sapiens, UniProt Q00526) (Q00526 whole entry): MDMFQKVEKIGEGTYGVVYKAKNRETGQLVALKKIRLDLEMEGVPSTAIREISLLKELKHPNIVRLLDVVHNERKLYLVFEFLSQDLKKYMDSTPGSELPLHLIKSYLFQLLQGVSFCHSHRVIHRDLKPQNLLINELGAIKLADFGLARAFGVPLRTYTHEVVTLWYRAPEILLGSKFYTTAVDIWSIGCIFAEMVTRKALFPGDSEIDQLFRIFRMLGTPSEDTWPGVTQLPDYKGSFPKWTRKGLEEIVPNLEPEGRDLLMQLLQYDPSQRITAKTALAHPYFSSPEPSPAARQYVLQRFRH

off-target kinases [5] = target: off-target kinases (Homo sapiens, UniProt P00519); conditions: ABL1, ATP Km app, ZLYTE
off-target kinases [6] = target: off-target kinases (Homo sapiens, UniProt P42356); conditions: PI4KA (PI4K alpha), Adapta, ATP 10
off-target kinases [7] = target: off-target kinases (Homo sapiens, UniProt Q00536); conditions: CDK16 (PCTK1)/cyclin Y, LanthaScreen Binding
Sequence of off-target kinases (Homo sapiens, UniProt Q00536) (Q00536 whole entry): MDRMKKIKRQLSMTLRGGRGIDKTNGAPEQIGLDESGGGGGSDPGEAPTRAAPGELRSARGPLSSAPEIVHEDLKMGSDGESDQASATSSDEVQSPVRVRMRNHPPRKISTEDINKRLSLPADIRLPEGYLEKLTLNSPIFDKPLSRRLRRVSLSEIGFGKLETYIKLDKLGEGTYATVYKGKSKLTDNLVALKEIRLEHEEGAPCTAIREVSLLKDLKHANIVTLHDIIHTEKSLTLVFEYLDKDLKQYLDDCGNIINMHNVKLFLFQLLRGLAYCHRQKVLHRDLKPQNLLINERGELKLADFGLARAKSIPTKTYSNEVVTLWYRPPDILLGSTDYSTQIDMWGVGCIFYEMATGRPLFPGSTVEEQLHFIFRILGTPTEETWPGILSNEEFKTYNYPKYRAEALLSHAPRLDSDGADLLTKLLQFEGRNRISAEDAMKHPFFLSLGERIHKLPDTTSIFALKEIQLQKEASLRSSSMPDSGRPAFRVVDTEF

off-target kinases [8] = target: off-target kinases (Homo sapiens, UniProt Q13464); conditions: ROCK1, ZLYTE, ATP Km app
Sequence of off-target kinases (Homo sapiens, UniProt Q13464) (Q13464 whole entry): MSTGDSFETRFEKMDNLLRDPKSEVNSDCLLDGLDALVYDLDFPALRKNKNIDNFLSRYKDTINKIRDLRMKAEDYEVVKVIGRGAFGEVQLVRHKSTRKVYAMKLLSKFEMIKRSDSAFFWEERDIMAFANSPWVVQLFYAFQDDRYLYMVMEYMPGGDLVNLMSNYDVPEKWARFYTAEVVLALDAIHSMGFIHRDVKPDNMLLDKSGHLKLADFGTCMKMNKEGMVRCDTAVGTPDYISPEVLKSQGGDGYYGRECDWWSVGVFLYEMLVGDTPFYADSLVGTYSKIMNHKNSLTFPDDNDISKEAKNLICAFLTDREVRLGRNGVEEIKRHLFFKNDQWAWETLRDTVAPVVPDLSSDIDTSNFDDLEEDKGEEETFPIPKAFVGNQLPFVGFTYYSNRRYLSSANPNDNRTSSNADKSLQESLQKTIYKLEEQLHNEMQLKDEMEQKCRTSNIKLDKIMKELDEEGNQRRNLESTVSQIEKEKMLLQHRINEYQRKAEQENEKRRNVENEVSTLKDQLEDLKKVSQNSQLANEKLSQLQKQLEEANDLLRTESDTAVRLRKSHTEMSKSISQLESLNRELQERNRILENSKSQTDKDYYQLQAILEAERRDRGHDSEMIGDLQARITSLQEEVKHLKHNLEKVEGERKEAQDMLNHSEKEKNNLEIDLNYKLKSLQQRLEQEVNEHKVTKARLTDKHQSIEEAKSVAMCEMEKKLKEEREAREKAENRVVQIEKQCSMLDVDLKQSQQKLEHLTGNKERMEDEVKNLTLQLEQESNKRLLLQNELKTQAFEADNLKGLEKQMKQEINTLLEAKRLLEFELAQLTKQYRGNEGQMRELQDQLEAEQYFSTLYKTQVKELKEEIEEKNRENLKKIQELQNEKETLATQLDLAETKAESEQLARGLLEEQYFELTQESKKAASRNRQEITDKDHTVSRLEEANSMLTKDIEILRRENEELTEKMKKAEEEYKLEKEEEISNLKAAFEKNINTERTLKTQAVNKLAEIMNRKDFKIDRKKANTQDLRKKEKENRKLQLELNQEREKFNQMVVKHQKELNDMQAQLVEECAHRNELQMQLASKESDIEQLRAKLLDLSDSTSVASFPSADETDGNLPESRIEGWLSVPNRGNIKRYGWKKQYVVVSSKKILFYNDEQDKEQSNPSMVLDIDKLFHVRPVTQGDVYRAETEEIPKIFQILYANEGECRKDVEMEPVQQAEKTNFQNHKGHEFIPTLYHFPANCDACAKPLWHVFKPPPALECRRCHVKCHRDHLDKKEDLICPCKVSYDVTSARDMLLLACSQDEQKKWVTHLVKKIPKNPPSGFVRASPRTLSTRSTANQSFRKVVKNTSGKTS

off-target kinases [9] = target: off-target kinases (Homo sapiens, UniProt P54764); conditions: EPHA4, ZLYTE, ATP Km app

With `N#Cc1cc(-c2ncnc(Nc3ccc(N4CCN(C5COC5)CC4)cc3)n2)ccc1OC1CCOCC1` [Compound 1, 5-(4-((4-(4-(oxetan-3-yl)piperazin-1-yl)phenyl)amino)-1,3,5-triazin-2-yl)-2-((tetrahydro-2H-pyran-4-yl)oxy)benzonitrile] the inhibition (off-target kinases [1]; read-out: % Inhibition 1) was 3%, the inhibition (off-target kinases [1]; read-out: % Inhibition 2) was 7% and the inhibition (off-target kinases [1]; read-out: % Inhibition Avg) was 5%. It also gave an inhibition (off-target kinases [2]; STK32C (YANK3), LanthaScreen Binding, read-out: % Inhibition 1) of -4%, an inhibition (off-target kinases [2]; STK32C (YANK3), LanthaScreen Binding, read-out: % Inhibition 2) of 3% and an inhibition (off-target kinases [2]; read-out: % Inhibition Avg) of -1%. For the same molecule, the inhibition (off-target kinases [3]; WNK3, LanthaScreen Binding, read-out: % Inhibition 1) was -3%, the inhibition (off-target kinases [3]; WNK3, LanthaScreen Binding, read-out: % Inhibition Avg) was -2% and the inhibition (off-target kinases [3]; read-out: % Inhibition 2) was 0%. For the same molecule, the inhibition (off-target kinases [4]; read-out: % Inhibition 1) was 2%, the inhibition (off-target kinases [4]; read-out: % Inhibition 2) was 9% and the inhibition (off-target kinases [4]; read-out: % Inhibition Avg) was 6%. For the same molecule, the inhibition (off-target kinases [5]; read-out: % Inhibition 1) was 48%, the inhibition (off-target kinases [5]; read-out: % Inhibition 2) was 51% and the inhibition (off-target kinases [5]; read-out: % Inhibition Avg) was 49%. For the same molecule, the inhibition (off-target kinases [6]; read-out: % Inhibition 1) was 3%, the inhibition (off-target kinases [6]; read-out: % Inhibition 2) was -3% and the inhibition (off-target kinases [6]; read-out: % Inhibition Avg) was 0%. The inhibition (off-target kinases [7]; read-out: % Inhibition 1) was 70%, the inhibition (off-target kinases [7]; read-out: % Inhibition 2) was 73% and the inhibition (off-target kinases [7]; read-out: % Inhibition Avg) was 71%. For the same molecule, the inhibition (off-target kinases [8]; read-out: % Inhibition 1) was 6%, the inhibition (off-target kinases [8]; read-out: % Inhibition 2) was 14% and the inhibition (off-target kinases [8]; read-out: % Inhibition Avg) was 10%. The inhibition (off-target kinases [9]; read-out: % Inhibition 1) was 18%, the inhibition (off-target kinases [9]; read-out: % Inhibition 2) was 21% and the inhibition (off-target kinases [9]; read-out: % Inhibition Avg) was 20%.

Reference: US11572590B2, “Methods for evaluating tumor cell spheroids using 3D microfluidic cell culture device” (Dana-Farber Cancer Institute, Inc., priority 2017, dated 2023)
